Measured values reported in ChEMBL document CHEMBL4373747 (ACS Med Chem Lett, 2020).

How the values were obtained:
[1] = Half life in NSG mouse; assay type: ADME; details: in vivo
MV4-11 [2] = assay: Induction of apoptosis in human MV4-11 cells assessed as early apoptotic cells at 4 uM incubated for 18 hrs by annexin V FITC and PI based flow cytometry (reference value: 19.46 to 22.17 %); assay type: functional
Histone deacetylase 7 = target: T1, Histone deacetylase 7 (Homo sapiens, UniProt Q8WUI4); assay: Inhibition of recombinant full length human HDAC7 expressed in baculovirus infected Sf9 cells using FAM-RHKK-TFAc as substrate incubated for 3 hrs by electrophoretic mobility shift assay
T1 sequence (Q8WUI4 whole entry): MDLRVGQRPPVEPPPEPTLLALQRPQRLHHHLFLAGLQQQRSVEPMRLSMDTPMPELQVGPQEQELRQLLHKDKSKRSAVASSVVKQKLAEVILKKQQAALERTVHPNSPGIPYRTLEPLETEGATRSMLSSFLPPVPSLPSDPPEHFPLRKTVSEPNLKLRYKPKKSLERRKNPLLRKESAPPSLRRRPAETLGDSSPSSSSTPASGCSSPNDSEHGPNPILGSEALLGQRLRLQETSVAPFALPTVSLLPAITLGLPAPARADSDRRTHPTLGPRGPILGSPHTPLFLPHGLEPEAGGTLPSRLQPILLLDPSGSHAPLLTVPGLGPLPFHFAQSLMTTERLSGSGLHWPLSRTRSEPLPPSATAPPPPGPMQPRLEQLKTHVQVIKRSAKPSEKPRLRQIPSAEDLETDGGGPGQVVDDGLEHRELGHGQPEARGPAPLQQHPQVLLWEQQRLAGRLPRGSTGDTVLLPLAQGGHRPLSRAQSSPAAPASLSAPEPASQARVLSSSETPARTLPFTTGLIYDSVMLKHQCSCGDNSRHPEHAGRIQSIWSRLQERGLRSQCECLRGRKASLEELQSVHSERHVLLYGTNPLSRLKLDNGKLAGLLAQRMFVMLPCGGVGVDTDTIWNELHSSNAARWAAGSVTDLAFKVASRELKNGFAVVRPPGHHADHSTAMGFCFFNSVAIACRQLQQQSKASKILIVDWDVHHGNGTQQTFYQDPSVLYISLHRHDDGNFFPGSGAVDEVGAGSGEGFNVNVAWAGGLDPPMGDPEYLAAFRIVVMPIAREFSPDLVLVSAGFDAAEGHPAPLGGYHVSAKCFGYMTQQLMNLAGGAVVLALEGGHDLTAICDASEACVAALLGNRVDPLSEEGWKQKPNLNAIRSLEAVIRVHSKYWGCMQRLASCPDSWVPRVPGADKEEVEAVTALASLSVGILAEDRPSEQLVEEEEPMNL

MV4-11 [3] = assay: Induction of apoptosis in human MV4-11 cells assessed as early apoptotic cells at 1 uM incubated for 18 hrs by annexin V FITC and PI based flow cytometry (reference value: 19.46 to 22.17 %); assay type: functional
MV4-11 [4] = assay: Induction of apoptosis in human MV4-11 cells assessed as late apoptotic cells incubated for 18 hrs by annexin V FITC and PI based flow cytometry; assay type: functional, cell-based
MV4-11 [5] = assay: Induction of apoptosis in human MV4-11 cells assessed as viable cells at 0.25 uM incubated for 18 hrs by annexin V FITC and PI based flow cytometry (reference value: 53.01 to 53.07 %); assay type: functional; details: Homo sapiens, MV4-11, 18 h; read-out: Activity
[6] = Tmax in NSG mouse; assay type: ADME; details: in vivo
MDA-MB-468 = assay: Cytotoxicity against human MDA-MB-468 cells assessed as reduction in cell viability incubated for 72 hrs by cell-titer blue assay; assay type: functional, cell-based; details: MDA-MB-468, 72 h
[7] = target: T2, Polyamine deacetylase HDAC10 (Homo sapiens, UniProt Q969S8); assay: Inhibition of recombinant full length human HDAC10 expressed in baculovirus infected Sf9 cells using FAM-RHKK-Ac as substrate incubated for 17 hrs by electrophoretic mobility shift assay
T2 sequence (Q969S8 whole entry): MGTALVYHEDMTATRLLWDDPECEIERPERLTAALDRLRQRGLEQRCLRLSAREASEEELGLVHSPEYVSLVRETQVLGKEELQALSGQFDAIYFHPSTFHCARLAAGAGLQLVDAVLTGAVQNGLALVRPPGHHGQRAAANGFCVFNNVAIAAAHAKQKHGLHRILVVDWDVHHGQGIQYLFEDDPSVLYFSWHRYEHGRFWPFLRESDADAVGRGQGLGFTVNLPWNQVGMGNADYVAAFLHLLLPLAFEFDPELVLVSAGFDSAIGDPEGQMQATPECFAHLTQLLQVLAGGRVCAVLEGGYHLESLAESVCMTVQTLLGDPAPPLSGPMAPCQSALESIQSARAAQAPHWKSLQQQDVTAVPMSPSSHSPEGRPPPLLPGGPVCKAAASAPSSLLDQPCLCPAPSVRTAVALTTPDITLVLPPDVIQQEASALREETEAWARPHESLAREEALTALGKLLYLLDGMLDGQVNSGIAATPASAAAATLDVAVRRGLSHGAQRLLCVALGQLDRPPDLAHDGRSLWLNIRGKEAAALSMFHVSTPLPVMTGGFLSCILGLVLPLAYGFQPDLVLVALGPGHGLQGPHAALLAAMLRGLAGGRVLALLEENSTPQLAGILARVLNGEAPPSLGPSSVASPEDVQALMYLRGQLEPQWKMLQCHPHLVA

[8] = Intrinsic clearance in ICR/CD1 mouse hepatocytes at 1 uM measured upto 120 mins by LCMS analysis; assay type: ADME, cell-based, Hepatocyte; details: 2 h
MV4-11 [9] = assay: Induction of apoptosis in human MV4-11 cells assessed as viable cells at 1 uM incubated for 18 hrs by annexin V FITC and PI based flow cytometry (reference value: 53.01 to 53.07 %); assay type: functional; details: Homo sapiens, MV4-11, 18 h; read-out: Activity
[10] = Apparent permeability from apical to basolateral side in human Caco2 cells incubated for 2 hrs by LC/MS analysis; assay type: ADME, cell-based, Caco-2; details: Caco-2
MV4-11 [11] = assay: Induction of apoptosis in human MV4-11 cells assessed as viable cells at 0.5 uM incubated for 18 hrs by annexin V FITC and PI based flow cytometry (reference value: 53.01 to 53.07 %); assay type: functional; details: Homo sapiens, MV4-11, 18 h; read-out: Activity
MDA-MB-231 = assay: Cytotoxicity against human MDA-MB-231 cells assessed as reduction in cell viability incubated for 72 hrs by cell-titer blue assay; assay type: functional, cell-based; details: MDA-MB-231, 72 h

- half-life [1]: 5 h
- IC50 (Histone deacetylase 7): > 1000 nM
- Tmax [6]: 8 h
- IC50 [7]: 899 nM
- CLH [8]: 49.1 µL/min
- Papp A→B at 2 h [10]: 3.45 ×10⁻⁶ cm/s
Structure (SMILES): CC(C)(C)c1ccc(C(=O)Nc2ccc(C(=O)NO)cc2)cc1
- Activity (MV4-11 [2]): 32.14%
- Activity (MV4-11 [3]): 29.78%
- Activity (MV4-11 [4]): Dose-dependent effect
- viability at 0.25 µM (MV4-11 [5]): 57.5%
- IC50 (MDA-MB-468): > 50000 nM
- viability at 1 µM (MV4-11 [9]): 40.9%
- viability at 0.5 µM (MV4-11 [11]): 48.7%
- IC50 (MDA-MB-231): > 25000 nM
